Experimental data from PubChem BioAssay AID1996.
Converted amounts (≈) assume the structure as drawn.

conditions: buffer; pH 7.4; 200.0 µM

| Compound | solubility kinetic |
| --- | --- |
| O=c1[nH]c2ccccc2n2c(=S)[nH]nc12 | > 32.7 µg/mL |
| COc1ccccc1CCC(=O)Oc1ccccc1C#N | 16.6 µg/mL (≈ 59 µM) |
| Cn1c(SCc2ccc(C#N)cc2)nnc1-c1ccncc1 | > 46.1 µg/mL |
| O=C(NC1CC1)[C@@H]1CSC2c3ccccc3C(=O)N21 (stereo partly specified) | > 41.2 µg/mL |
| O=S(=O)(NCc1nc2ccccc2[nH]1)c1ccccc1 | > 43.1 µg/mL |
| O=C(CSc1ccccc1F)NCCCN1CCCC1=O | > 46.6 µg/mL |
| O=C(O)COc1ccccc1-c1nc(-c2ccccc2)c(-c2ccccc2)[nH]1 | 46.1 µg/mL (≈ 124 µM) |
| COC(=O)c1cc(C(=O)NC(C)C2CC3CCC2C3)cc([N+](=O)[O-])c1 (stereo unspecified) | 11 µg/mL (≈ 31.8 µM) |
| CCOc1ccc(S(=O)(=O)n2cnc3ccccc32)cc1 | 42.4 µg/mL (≈ 140 µM) |
| COCCCNC(=O)c1c(N)n(Cc2ccco2)c2nc3ccccc3nc12 | 4.8 µg/mL (≈ 12.7 µM) |
| CCOc1ncccc1C(=O)NC(C)CCc1ccccc1 (stereo unspecified) | 41 µg/mL (≈ 137 µM) |
| Cn1c(=O)[nH]c(=O)c2c1nc(N1CCCC1)n2CCO | > 41.9 µg/mL |
| CC(C)C(OC(=O)c1ccccc1)c1nccc2ccccc12 (stereo unspecified) | 6.9 µg/mL (≈ 22.6 µM) |
| CC(C)=C(NC(=O)c1ccccc1)C(=O)NCc1ccccc1 | > 46.3 µg/mL |
| CC(NC(=O)C(=S)N1CCN(C)CC1)c1ccccc1 (stereo unspecified) | > 43.7 µg/mL |
| O=C(O)c1cccnc1SCc1ccccc1Cl | > 42 µg/mL |
| COCCn1c(/C=C/c2ccccc2)nc2ccccc21 | > 41.8 µg/mL |
| CC1(C)COCN1C(=O)c1ccc(C#N)cc1 | > 34.5 µg/mL |
| C=CCn1cc(/C=C2/NC(=O)NC2=O)c2ccccc21 | 1 µg/mL (≈ 3.74 µM) |

| Compound | solubility kinetic |
| --- | --- |
| O=C(NC1CCS(=O)(=O)C1)c1cccc(Br)c1 (stereo unspecified) | > 47.7 µg/mL |
| COCCCNc1nc2ccccc2[nH]c1=O | > 35 µg/mL |
| N#Cc1ccc(C(=O)N2CCN(C(=O)C3CCCO3)CC2)cc1 (stereo unspecified) | > 47 µg/mL |
| CC(=O)n1c(-c2ccccc2)c(-c2ccccc2)n(C)c1=O | > 43.9 µg/mL |
| C/C(N)=C(/C#N)C(=O)COC(=O)c1ccc(OCC2CCCO2)cc1 (stereo unspecified) | 51.5 µg/mL (≈ 150 µM) |
| CCOC(=O)C1CCN(C(=O)/C=C/c2ccc3c(c2)OCO3)CC1 | > 49.7 µg/mL |
| CCOC(=O)c1ccc(C(=S)N2CCCC2)cc1 | 37.3 µg/mL (≈ 142 µM) |
| CCOc1ccc2nc(N(CCN(C)C)C(=O)/C=C/c3cccs3)sc2c1.Cl | < 0.3 µg/mL |
| O=C(Nc1ccncc1)c1ccc(N2CCCC2=O)cc1 | > 42.2 µg/mL |
| O=C(Nc1ccc(F)cc1)Nc1cnccn1 | 27.9 µg/mL (≈ 120 µM) |
| CCOc1ccc(NC(=O)c2cc(=O)[nH]c3ccccc23)cc1 | 1.3 µg/mL (≈ 4.22 µM) |
| O=C(Nc1ccc(C(=O)N2CCCC2)cc1)c1ccccc1[N+](=O)[O-] | 48.2 µg/mL (≈ 142 µM) |
| Cc1cc(=O)oc2cc(NS(=O)(=O)c3ccccc3)ccc12 | 10.5 µg/mL (≈ 33.3 µM) |
| Cn1ccnc1SCC(=O)c1ccc2ccccc2c1 | 35.8 µg/mL (≈ 127 µM) |
| O=C(Nc1nnc(-c2ccco2)o1)c1ccc(N2C(=O)CCC2=O)cc1 | > 52.8 µg/mL |
| O=C(COC(=O)C1(c2ccccc2F)CCCC1)N1CCNC1=O | > 50.2 µg/mL |
| Cc1nc2ccc(NC(=O)[C@H](C)N3C(=O)C4CC=CCC4C3=O)cc2s1 (stereo partly specified) | > 55.4 µg/mL |
| Nc1ccc(S(=O)(=O)NCc2ccccn2)cc1 | > 39.5 µg/mL |

Other lines, results leading:

| solubility kinetic | Compound |
| --- | --- |
| < 0.6 µg/mL | CCOc1cccc(C(=O)Nc2ccc3ccccc3c2)c1 |
| 20.7 µg/mL (≈ 66.2 µM) | CCN1/C(=C\C(=S)Nc2ccccc2)Sc2ccccc21 |
| > 44.1 µg/mL | O=C(CCl)Nc1c2c(nn1-c1ccccc1)CSC2 |
| 0.9 µg/mL (≈ 3.03 µM) | Cc1ccc2oc(=O)n(CCCOc3ccccc3C)c2c1 |
| 38.3 µg/mL (≈ 138 µM) | COc1ccccc1NC(=O)C1CC(C(C)C)OC1=O (stereo unspecified) |
| 36 µg/mL (≈ 108 µM) | Cc1ccccc1N(Cc1cc(=O)[nH]c2ccccc12)C(=O)C(C)C |
| 40.3 µg/mL (≈ 147 µM) | CCN(CC)C(=S)Nc1ccc(OC(F)F)cc1 |
| > 44.6 µg/mL | O=C(O)c1cc(C(=O)O)cc(N2C(=O)CSC2=S)c1 |
| 2.2 µg/mL (≈ 6.68 µM) | CC(NC(=O)Nc1cccc([N+](=O)[O-])c1)c1ccc2c(c1)OCO2 (stereo unspecified) |
| > 43 µg/mL | CC(C)(C)CC(=O)Nc1cc2c3c(c1)CCN3C(=O)CC2 |
| > 35.8 µg/mL | Cc1cc(C)c(NC(=S)NCCO)c(C)c1 |
| > 59.3 µg/mL | Cc1cccc(NS(=O)(=O)c2ccc(C)c(C(=O)NCc3cccnc3)c2)c1 |
| > 41.3 µg/mL | Cc1onc(C(=O)NCCc2ccccc2)c1[N+](=O)[O-] |
| 16.9 µg/mL (≈ 74.4 µM) | Cc1ccc(C)c(OC(=O)c2cccnc2)c1 |
| > 42.4 µg/mL | CSCC[C@H](NC(=O)Nc1ccccc1C)C(=O)O |
| > 46.9 µg/mL | Cn1ncc2c(NCc3ccccc3)nc(NCCCO)nc21 |
| > 30.9 µg/mL | Cn1cc2cc(NC(N)=S)ccc2n1 |
| > 50.3 µg/mL | CCC(C)N(C)C1CCN(C(=S)Nc2ccc(OC)cc2)CC1 (stereo unspecified) |
| > 50.6 µg/mL | CCc1noc(C)c1C(=O)NCCc1ccc(S(N)(=O)=O)cc1 |
| 46.6 µg/mL (≈ 142 µM) | O=C(NCCNC(=O)c1cc(Cl)ccc1Cl)c1ccco1 |
| 12.1 µg/mL (≈ 43.8 µM) | COc1ccccc1CNc1nc(C)c(C(C)=O)s1 |
| 42.5 µg/mL (≈ 132 µM) | COc1cc([N+](=O)[O-])ccc1NC(=O)CSc1nccn1C |
| > 44.5 µg/mL | Cc1c(C)n(C)c2ccc(C(=O)NCCc3ccco3)cc12 |
| > 42.5 µg/mL | COc1ccc(CCNc2ncccc2C#N)cc1OC |
